{"source": "paper PMC9395968", "about": "“Pristimerin, a triterpene that inhibits monoacylglycerol lipase activity, prevents the development of paclitaxel-induced allodynia in mice” (Frontiers in Pharmacology, 2022)", "key": {"[1]": {"biological_target": "T1, mouse monoacylglycerol lipase (MAGL) (Mus musculus, UniProt O35678)", "T1 construct": "gene Mgll", "T1 sequence (O35678 1-303)": "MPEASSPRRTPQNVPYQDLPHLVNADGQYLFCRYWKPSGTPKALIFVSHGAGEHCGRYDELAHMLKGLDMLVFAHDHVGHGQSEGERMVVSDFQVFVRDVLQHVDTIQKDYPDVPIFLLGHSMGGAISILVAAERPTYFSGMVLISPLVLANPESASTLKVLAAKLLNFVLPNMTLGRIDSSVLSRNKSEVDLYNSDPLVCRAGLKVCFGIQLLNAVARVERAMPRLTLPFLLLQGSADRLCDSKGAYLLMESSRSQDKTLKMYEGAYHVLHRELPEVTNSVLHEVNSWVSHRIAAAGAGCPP", "test": "fluorometric MAGL activity assay in paw skin supernatant (brain IC50 […])", "format": "biochemical"}, "[2]": {"biological_target": "T2, human recombinant monoacylglycerol lipase (MAGL) (Homo sapiens, UniProt Q99685)", "T2 construct": "gene MGLL", "T2 sequence (Q99685 1-303)": "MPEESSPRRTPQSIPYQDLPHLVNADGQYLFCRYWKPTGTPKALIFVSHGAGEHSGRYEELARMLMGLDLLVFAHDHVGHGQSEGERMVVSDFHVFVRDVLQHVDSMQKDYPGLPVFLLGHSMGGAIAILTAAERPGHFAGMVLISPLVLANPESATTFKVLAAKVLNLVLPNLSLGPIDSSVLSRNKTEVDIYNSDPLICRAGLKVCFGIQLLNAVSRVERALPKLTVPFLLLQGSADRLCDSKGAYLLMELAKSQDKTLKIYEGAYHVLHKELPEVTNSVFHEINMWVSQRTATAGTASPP", "test": "colorimetric MAGL inhibitor screening kit (4-nitrophenyl acetate hydrolysis, […] nm)", "format": "biochemical"}}, "data": [{"smiles": "COC(=O)[C@]1(C)CC[C@]2(C)CC[C@]3(C)C4=CC=C5C(=CC(=O)C(O)=C5C)[C@]4(C)CC[C@@]3(C)[C@@H]2C1", "note": "[pristimerin]", "values": [{"measurement": "IC50", "setting": "[1]", "result": 596, "unit": "nM"}, {"measurement": "IC50", "setting": "[2]", "result": 130, "unit": "nM"}]}]}
